Square brackets hold non-standard residues; d marks the D form. Peptide text beside a SMILES is read from it. * marks the point of attachment. Dopa = N[C@@H](Cc1ccc(O)c(O)c1)C(=O)O; αMeF = C[C@](N)(Cc1ccccc1)C(=O)O; Cha = N[C@@H](CC1CCCCC1)C(=O)O; Ac6c = NC1(C(=O)O)CCCCC1; Ac5c = NC1(C(=O)O)CCCC1; Aib = CC(C)(N)C(=O)O; OcHex = C1CCC(O*)CC1; OBn = c1ccc(CO*)cc1; OiPr = CC(C)O*
Legend:
Format in all cases: functional
Rattus norvegicus [1] = assay: Antiparkinsonian activity in 6-hydroxydopamine lesioned Wistar rat assessed as duration of activity at 63.4 umol/kg, po measured every 10 mins for 240 mins relative to L-DOPA
Rattus norvegicus [2] = assay: Antiparkinsonian activity in 6-hydroxydopamine lesioned Wistar rat assessed as peak activity by measuring contralateral rotations at 63.4 umol/kg, po measured every 10 mins for 240 mins relative to L-DOPA
Rattus norvegicus [3] = assay: Antiparkinsonian activity in 6-hydroxydopamine lesioned Wistar rat assessed as AUC activity by measuring contralateral rotations at 63.4 umol/kg, po measured every 10 mins for 240 mins relative to L-DOPA
Rattus norvegicus [4] = assay: Antiparkinsonian activity in 6-hydroxydopamine lesioned Wistar rat assessed as duration of activity at 63.4 umol/kg, ip measured every 10 mins for 240 mins relative to L-DOPA
Rattus norvegicus [5] = assay: Antiparkinsonian activity in 6-hydroxydopamine lesioned Wistar rat assessed as peak activity by measuring contralateral rotations at 63.4 umol/kg, ip measured every 10 mins for 240 mins relative to L-DOPA
Rattus norvegicus [6] = assay: Antiparkinsonian activity in 6-hydroxydopamine lesioned Wistar rat assessed as AUC activity by measuring contralateral rotations at 63.4 umol/kg, ip measured every 10 mins for 240 mins relative to L-DOPA

Structure (SMILES)	Activity (Rattus norvegicus [1]) [%]	Activity (Rattus norvegicus [2]) [%]	Activity (Rattus norvegicus [3]) [%]	Activity (Rattus norvegicus [4]) [%]	Activity (Rattus norvegicus [5]) [%]	Activity (Rattus norvegicus [6]) [%]
COC(=O)[C@H](Cc1ccc(O)c(O)c1)NC(=O)C1(N)CCCC1.Cl (H-[Ac5c]-[Dopa]-OMe)	97	105	78	–	–	–
COC(=O)[C@H](Cc1ccc(OC(C)=O)c(OC(C)=O)c1)NC(=O)C(C)(C)N.Cl	73	69	55	–	–	–
CC(C)(N)C(=O)N[C@@H](Cc1ccc(O)c(O)c1)C(=O)OCc1ccccc1.Cl (H-[Aib]-[Dopa]-OBn)	38	71	46	–	–	–
CC(C)(N)C(=O)N[C@@H](Cc1ccc(O)c(O)c1)C(=O)O.Cl (H-[Aib]-[Dopa]-OH)	57	80	65	–	–	–
CC(C)OC(=O)[C@H](Cc1ccc(O)c(O)c1)NC(=O)C(C)(C)N.Cl (H-[Aib]-[Dopa]-OiPr)	72	149	116	–	–	–
COC(=O)[C@H](Cc1ccc(OC(C)=O)c(OC(C)=O)c1)NC(=O)C1(N)CCCCC1.Cl	42	55	42	–	–	–
COC(=O)[C@H](Cc1ccc(O)c(O)c1)NC(=O)C1(N)CCCCC1.Cl (H-[Ac6c]-[Dopa]-OMe)	84	107	88	–	–	–
COC(=O)[C@H](Cc1ccc(OC(C)=O)c(OC(C)=O)c1)NC(=O)C1(N)CCCC1.Cl	44	61	39	–	–	–
CC(C)CCOC(=O)[C@H](Cc1ccc(O)c(O)c1)NC(=O)C(C)(C)N.Cl	49	59	79	–	–	–
C[C@](N)(Cc1ccccc1)C(=O)N[C@@H](Cc1ccc(O)c(O)c1)C(=O)O.Cl (H-[αMeF]-[Dopa]-OH)	40	37	26	–	–	–
CC(=O)Oc1ccc(C[C@H](NC(=O)C(C)(C)N)C(=O)O)cc1OC(C)=O.Cl	45	66	42	–	–	–
COC(=O)[C@H](Cc1ccc(O)c(O)c1)NC(=O)[C@@H](N)CC1CCCCC1.Cl (H-[Cha]-[Dopa]-OMe)	45	53	40	–	–	–
COC(=O)[C@H](Cc1ccc(O)c(O)c1)NC(=O)C(C)(C)N.Cl (H-[Aib]-[Dopa]-OMe)	–	–	–	63	77	69
CC(C)(N)C(=O)N[C@@H](Cc1ccc(O)c(O)c1)C(=O)OC1CCCCC1.Cl (H-[Aib]-[Dopa]-OcHex)	70	82	105	–	–	–
COC(=O)[C@H](Cc1ccc(OC(C)=O)c(OC(C)=O)c1)NC(=O)[C@@H](N)CC1CCCCC1.Cl	–	–	–	27	51	32
